Some test systems named below: NCI-H23 lung; HL-60(TB) leukemia; COLO 205 colon; SF-539 CNS; EKVX NSCLC; NCI-H460 lung; 786-0 renal; SF-295 CNS; NCI/ADR-RES ovarian; SR leukemia; BT-549 breast.
What all share (assay): NCI anticancer screen, dose series, 48 h

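How tested: cells in 96-well plates exposed to compound for 48 hours at five concentrations. TGI marks complete inhibition of growth.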

Turning to `O=C1O[C@@H](c2ccccc2)C[C@@H]1CN1CCOCC1`, the TGI is 64.1 µM in the experiment with NCI-H23 lung; over 100 µM in the experiment on HL-60(TB) leukemia; over 100 µM with COLO 205 colon; over 100 µM with SF-539 CNS; over 100 µM in the experiment with EKVX NSCLC; over 100 µM in the experiment on NCI-H460 lung. Further, the TGI in the experiment with 786-0 renal and in the experiment on SF-295 CNS was over 100 µM throughout.
In the case of `N#C/C(=C\NC(=S)Nc1ccc(S(=O)(=O)Nc2ccccn2)cc1)C(N)=O`, the TGI in the experiment with NCI-H23 lung, in the experiment with NCI/ADR-RES ovarian, in the experiment on COLO 205 colon, in the experiment with SR leukemia, with SF-539 CNS and with EKVX NSCLC was over 100 µM throughout. Moreover, the TGI in the experiment on NCI-H460 lung, in the experiment on 786-0 renal and in the experiment with SF-295 CNS was over 100 µM each time.
With `CC(C)(C)OC(=O)NC(C)(C)C(=O)NCCC(=O)O`, the TGI with NCI-H23 lung, in the experiment on NCI/ADR-RES ovarian, in the experiment with COLO 205 colon, with SF-539 CNS, in the experiment with EKVX NSCLC and with NCI-H460 lung was over 100 µM in each case. Further, the TGI in the experiment on 786-0 renal, in the experiment with BT-549 breast and in the experiment with SF-295 CNS was over 100 µM throughout.
`c1cc2nnc1SCCSCCSc1ccc(nn1)SCCSCCS2`: the TGI in the experiment on NCI-H23 lung was over 100 µM; with NCI/ADR-RES ovarian it was over 100 µM; with HL-60(TB) leukemia, over 100 µM; in the experiment with COLO 205 colon it was over 100 µM; in the experiment on SR leukemia, over 100 µM; in the experiment on SF-539 CNS it was 96.8 µM. For the same molecule, the TGI in the experiment on EKVX NSCLC, in the experiment with NCI-H460 lung, in the experiment on 786-0 renal and in the experiment with SF-295 CNS was over 100 µM each time.
Turning to `CCOc1ccc(N/C(=C(/C(Cl)=C(/Cl)NCCN)[N+](=O)[O-])n2nnc3ccccc32)cc1`, the TGI was over 100 µM with NCI-H23 lung; over 100 µM in the experiment on NCI/ADR-RES ovarian; 32.4 µM in the experiment with COLO 205 colon; 41.9 µM in the experiment on SF-539 CNS; over 100 µM in the experiment with EKVX NSCLC; over 100 µM with NCI-H460 lung. For the same molecule, the TGI in the experiment with 786-0 renal, with BT-549 breast and in the experiment on SF-295 CNS was over 100 µM throughout.
On to `C[N+](C)(C)CC(=O)N/N=c1\cc(C(=O)Nc2ccc(N=O)cc2C#N)oc2cc(O)ccc12`, for which the TGI in the experiment on NCI-H23 lung, with HL-60(TB) leukemia, with COLO 205 colon, in the experiment on SR leukemia, in the experiment with SF-539 CNS and in the experiment with EKVX NSCLC was over 100 µM throughout. The TGI with NCI-H460 lung, in the experiment on 786-0 renal and in the experiment on SF-295 CNS was over 100 µM in each case.
In the case of `O=C1NC(c2ccc(O)cc2)C2CCC1C2` (stereo not drawn), the TGI with NCI-H23 lung, in the experiment on HL-60(TB) leukemia, in the experiment with COLO 205 colon, in the experiment on SR leukemia, with EKVX NSCLC and with NCI-H460 lung was over 100 µM in each case. For the same molecule, the TGI in the experiment on 786-0 renal and in the experiment with SF-295 CNS was over 100 µM in each case.
Consider `Cc1c(Cl)cccc1NC(=O)C(=O)C1C(=O)CC(C)(C)CC1=O`, for which the TGI in the experiment on NCI-H23 lung, with HL-60(TB) leukemia, with COLO 205 colon, in the experiment with SR leukemia, in the experiment on SF-539 CNS and with EKVX NSCLC was over 100 µM throughout. Besides, the TGI with NCI-H460 lung, in the experiment on 786-0 renal and with SF-295 CNS was over 100 µM throughout.
For the molecule `O=C(/C=C/c1ccccc1)/C=C/c1ccccc1O`, the TGI in the experiment on NCI-H23 lung was found to be 49.3 µM; in the experiment on HL-60(TB) leukemia it was 35.8 µM; in the experiment with COLO 205 colon, 31.1 µM; in the experiment with SR leukemia, 72.7 µM; in the experiment on SF-539 CNS, 44.3 µM; in the experiment on EKVX NSCLC, 39.8 µM. Besides, the values for the TGI in the experiment with NCI-H460 lung, with 786-0 renal and with SF-295 CNS were 39.7 µM, 32.4 µM and 48.8 µM, respectively.
As to `Oc1ccccc1C(c1cc2c(cc1O)OCO2)N1CCOCC1` (stereo not drawn), the TGI is 46.6 µM in the experiment with NCI-H23 lung; 4.27 µM with HL-60(TB) leukemia; 34.8 µM in the experiment on COLO 205 colon; 24.6 µM with SR leukemia; 39.2 µM with SF-539 CNS; over 100 µM in the experiment on EKVX NSCLC. Besides, the TGI in the experiment on NCI-H460 lung was 72.7 µM; in the experiment on 786-0 renal, 22.6 µM; with BT-549 breast, 30.9 µM; in the experiment with SF-295 CNS, 41.6 µM.
Regarding `COc1ccc(C2C(Cl)C(=O)N2NC(=O)c2ccc(NC(C)=O)cc2)cc1` (stereo not drawn), the TGI in the experiment on NCI-H23 lung, in the experiment on HL-60(TB) leukemia, in the experiment on COLO 205 colon, in the experiment on SF-539 CNS, in the experiment with EKVX NSCLC and in the experiment on NCI-H460 lung was over 100 µM in each case. The TGI in the experiment with 786-0 renal and in the experiment on SF-295 CNS was over 100 µM in each case.
As to `CO[C@@H](C(=O)OC1C=CC2(CC1)C(=O)N(C)c1ccccc12)c1ccccc1` (stereo partly drawn), the TGI was over 100 µM with NCI-H23 lung; over 100 µM with NCI/ADR-RES ovarian; 94 µM in the experiment with HL-60(TB) leukemia; over 100 µM with COLO 205 colon; over 100 µM in the experiment with SR leukemia; over 100 µM in the experiment on EKVX NSCLC. Further, the TGI in the experiment with NCI-H460 lung, with 786-0 renal and with SF-295 CNS was over 100 µM throughout.
In the case of `Cc1cc(=O)cc2sc3c(C)cccc3nc1-2`, the TGI is over 100 µM with NCI-H23 lung; 46.8 µM in the experiment on HL-60(TB) leukemia; 32.6 µM in the experiment with COLO 205 colon; over 100 µM in the experiment with SR leukemia; 73.3 µM in the experiment on SF-539 CNS; 57.6 µM in the experiment with NCI-H460 lung. Moreover, the TGI with 786-0 renal is 32.2 µM; in the experiment with SF-295 CNS, over 100 µM.
Take `CC(=O)NC1C(OCc2ccccc2)OC(CO)C(O)C1OCC(=O)N[C@@H](C)C(=O)N[C@H](CCC(=O)NCCNCCNc1c2ccccc2nc2cccc([N+](=O)[O-])c12)C(N)=O` (stereo partly drawn): the TGI is 35.3 µM in the experiment on NCI-H23 lung; over 100 µM in the experiment with NCI/ADR-RES ovarian; over 100 µM in the experiment with HL-60(TB) leukemia; over 100 µM in the experiment on COLO 205 colon; over 100 µM in the experiment with SR leukemia; over 100 µM in the experiment with SF-539 CNS. Moreover, the TGI in the experiment with EKVX NSCLC is 91.1 µM; in the experiment on NCI-H460 lung it was 36.5 µM; with 786-0 renal, 99.4 µM; in the experiment on SF-295 CNS it was over 100 µM.
`O=C1CC(O)c2c1csc2Br` (stereo not drawn): the TGI was 59.1 µM in the experiment with NCI-H23 lung; 49 µM with NCI/ADR-RES ovarian; 59.9 µM in the experiment with COLO 205 colon; over 100 µM in the experiment on EKVX NSCLC; over 100 µM in the experiment with NCI-H460 lung; 51.1 µM with 786-0 renal. The TGI was 52.9 µM with BT-549 breast and over 100 µM in the experiment with SF-295 CNS.

For the origin of these results see PubChem BioAssay (NCI).
